Assay [1] has as its target T1, PhLOX (Pyropia haitanensis, UniProt J7JU42, F826L).
T1 construct: gene lox
The settings on record: 100 μM ALA, 0.1 mg/mL enzyme, pH 8.0, 20 °C, 15 min.

For assay [2], the target named is T2, PhLOX (Pyropia haitanensis, UniProt J7JU42, F642V/F826L).
T2 construct: gene lox
The settings on record: 100 μM ALA, 0.1 mg/mL enzyme, pH 8.0, 20 °C, 15 min.

The target in assay [3] is T3, SvLOX (Shewanella violacea, UniProt D4ZL63).
T3 construct: gene SVI_2441; SRPBCC domain + LOX domain
T3 sequence (D4ZL63 1-839): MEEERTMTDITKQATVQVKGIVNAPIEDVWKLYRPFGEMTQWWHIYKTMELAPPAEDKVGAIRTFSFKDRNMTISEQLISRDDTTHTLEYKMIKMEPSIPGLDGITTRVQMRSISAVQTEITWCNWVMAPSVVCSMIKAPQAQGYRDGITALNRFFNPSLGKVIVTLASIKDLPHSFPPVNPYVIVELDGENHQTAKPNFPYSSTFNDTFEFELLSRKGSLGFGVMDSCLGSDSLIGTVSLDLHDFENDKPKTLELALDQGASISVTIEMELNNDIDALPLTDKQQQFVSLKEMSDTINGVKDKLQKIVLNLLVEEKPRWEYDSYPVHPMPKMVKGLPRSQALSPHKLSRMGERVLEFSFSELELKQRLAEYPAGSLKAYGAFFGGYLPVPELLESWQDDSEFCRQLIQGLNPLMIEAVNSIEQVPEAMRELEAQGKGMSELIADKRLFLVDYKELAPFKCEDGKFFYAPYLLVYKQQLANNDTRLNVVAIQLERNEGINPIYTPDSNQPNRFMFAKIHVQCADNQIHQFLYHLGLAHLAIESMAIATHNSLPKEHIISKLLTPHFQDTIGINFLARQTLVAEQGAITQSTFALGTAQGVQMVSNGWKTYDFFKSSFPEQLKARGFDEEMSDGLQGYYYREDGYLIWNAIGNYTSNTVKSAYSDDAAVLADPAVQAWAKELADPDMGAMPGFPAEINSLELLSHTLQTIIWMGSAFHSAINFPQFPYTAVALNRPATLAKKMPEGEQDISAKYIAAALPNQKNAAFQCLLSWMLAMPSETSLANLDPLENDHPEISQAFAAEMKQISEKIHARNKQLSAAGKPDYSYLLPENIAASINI
The experiment in a line: HPLC-MS and GC-MS of products. It counts as biochemical. The following applies: 100 μM ARA, 0.1 mg/mL enzyme, pH 8.0, 20 °C, 1 min (HPLC-MS) or 15 min (GC-MS).

T2 sequence (J7JU42 entry or part of it F642V/F826L): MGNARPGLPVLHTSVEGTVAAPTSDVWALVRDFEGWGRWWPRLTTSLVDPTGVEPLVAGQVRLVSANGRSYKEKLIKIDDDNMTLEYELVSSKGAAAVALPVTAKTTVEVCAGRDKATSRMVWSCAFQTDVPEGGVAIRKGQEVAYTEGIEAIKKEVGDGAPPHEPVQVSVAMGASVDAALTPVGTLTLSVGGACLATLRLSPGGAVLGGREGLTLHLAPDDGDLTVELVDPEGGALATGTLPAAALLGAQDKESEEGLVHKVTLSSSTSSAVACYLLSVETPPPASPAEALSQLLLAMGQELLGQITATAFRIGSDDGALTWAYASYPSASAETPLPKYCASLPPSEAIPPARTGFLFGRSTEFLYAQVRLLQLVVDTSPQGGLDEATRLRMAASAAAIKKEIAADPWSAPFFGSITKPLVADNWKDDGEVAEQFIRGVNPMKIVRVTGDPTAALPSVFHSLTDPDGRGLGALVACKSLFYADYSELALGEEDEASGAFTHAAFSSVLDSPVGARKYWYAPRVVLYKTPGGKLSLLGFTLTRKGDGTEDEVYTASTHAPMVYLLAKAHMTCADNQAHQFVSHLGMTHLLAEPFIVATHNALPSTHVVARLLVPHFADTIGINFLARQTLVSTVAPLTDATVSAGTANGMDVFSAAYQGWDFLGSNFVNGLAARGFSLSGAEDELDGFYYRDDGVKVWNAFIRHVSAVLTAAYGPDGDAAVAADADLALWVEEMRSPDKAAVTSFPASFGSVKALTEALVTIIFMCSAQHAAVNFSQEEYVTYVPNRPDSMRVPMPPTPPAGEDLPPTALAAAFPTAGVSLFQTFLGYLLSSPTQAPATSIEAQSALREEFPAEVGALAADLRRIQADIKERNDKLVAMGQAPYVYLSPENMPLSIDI
T1 sequence (J7JU42 entry or part of it F826L): as the sequence (J7JU42 entry or part of it F642V/F826L) above, with V642F counted along it

With `CC/C=C\C/C=C\C/C=C\CCCCCCCC(=O)O` [α-linolenic acid], the HPLC-MS of products result in assay [1] is given as “(ALA) was incubated with the F826L mutant of PhLOX, much more 9-HpOTE was formed”; in assay [2], “When ALA was incubated with the F642V-F826L double mutant of PhLOX, 13-HpOTE was the dominating product”.
`CCCCC/C=C\C/C=C\C/C=C\C/C=C\CCCC(=O)O` [arachidonic acid]: the “HPLC-MS and GC-MS of products” value in assay [3] is “the incubation of ARA with SvLOX gave 12-hydroperoxy/hydroxy eicosatetraenoic acids”.

The record behind these values is PMC11507377, “Intricate Evolution of Multifunctional Lipoxygenase in Red Algae” (International Journal of Molecular Sciences, 2024).
